{
  "source": "patent US11643428B2",
  "about": "“Therapeutic drug for neurodegenerative disease and application thereof” (SHANGHAI PHARMACEUTICALS HOLDING CO., LTD., priority 2018, dated 2023)",
  "test_system": "MPTP mice model",
  "assay": "Striatal dopaminergic nerve fibers, TH western blot, MPTP model",
  "type": "in vivo, mouse",
  "details": "PL201+MPTP vs NS+MPTP group, Day 7 after MPTP modeling",
  "experimental": "The mice were randomly divided into 4 groups: a group in which the mice was administrated with normal saline (NS), a MPTP model group in which the mice was intragastrical administrated with normal saline (NS+MPTP), a group in which the mice was intragastrical administrated with 50 mg of compound PL201 (PL201), and a MPTP model group in which the mice was intragastrical administrated with compound PL201 (PL201+MPTP).\n11 animals were set in the group in which the mice was administrated with normal saline (NS), 14 animals were set in the MPTP model group in which the mice was intragastrical administrated with normal saline (NS+MPTP), 4 animals were set in the group in which the mice was intragastrically administrated with 50 mg of compound PL201 (PL201), 15 animals were set in the MPTP model group in which the mice was intragastrically administrated with the compound PL201 (PL201+MPTP).\nThe administration started on the day of animal grouping: mice in the NS and the NS+MPTP group were administrated with normal saline, and mice in the other two groups were administrated with compound PL201 once a day for 7 consecutive days. […]\nOn Day 7 after MPTP modeling, animals in each group were anesthetized with 10% chloral hydrate. […] The fluorescence signal was detected by Odyssey near-infrared fluorescence scanner and made statistics.",
  "data": [
    {"compound": "COc1cc(/C=C/C(=O)OC2OC(C)C(O)C(O)C2O)ccc1O", "note": "[PL201, (α-L-rhamnopyranosyl) ferulic acid ester]", "values": [
      {"measurement": "level of striatal dopaminergic nerve fibers (TH western blot)", "value": "significantly increased"}
    ]}
  ]
}
